ChEMBL document CHEMBL1201862, “PubChem BioAssay data set” (2004)
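In this assay, cells in 96-well plates receive the compound at five concentrations for 48 hours. Endpoints are linearly interpolated between the surrounding concentrations. At the GI50, growth is halved.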 Active and inactive are the calls of the source. Rule as the data show it: active = GI50 up to about 1.1 µM and inactive = higher.

Key:
Experiment in all cases: NCI anticancer screen, dose series, 48 h
[1] = tested on: OVCAR-3
[2] = tested on: HOP-92
[3] = tested on: OVCAR-8
[4] = tested on: MCF7
[5] = tested on: BT-549
[6] = tested on: NCI-H460
[7] = tested on: Hs-578T
[8] = tested on: SF-539
[9] = tested on: CCRF-CEM
[10] = tested on: SW-620
[11] = tested on: MOLT-4
[12] = tested on: MDA-MB-231
[13] = tested on: DU-145
[14] = tested on: NCI/ADR-RES
[15] = tested on: SN12C
[16] = tested on: UACC-257
[17] = tested on: EKVX

Structure (SMILES)	GI50 [1]	GI50 [2]	GI50 [3]	GI50 [4]	GI50 [5]	GI50 [6]	GI50 [7]	GI50 [8]	GI50 [9]	GI50 [10]	GI50 [11]	GI50 [12]	GI50 [13]	GI50 [14]	GI50 [15]	GI50 [16]	GI50 [17]
Cc1ccc(F)cc1NC(=O)O/N=C(\Cl)C(C)C	6.47 µM (inactive)	2.58 µM (inactive)	17.5 µM (inactive)	6.4 µM (inactive)	2.18 µM (inactive)	29.2 µM (inactive)	22.5 µM (inactive)	7.21 µM (inactive)	1.9 µM (inactive)	2.35 µM (inactive)	1.6 µM (inactive)	14.1 µM (inactive)	18.2 µM (inactive)	10.6 µM (inactive)	6.11 µM (inactive)	19 µM (inactive)	7.19 µM (inactive)
CCNC(=S)N/N=C1\C(=O)Nc2ccc([N+](=O)[O-])cc21	40.4 µM (inactive)	34 µM (inactive)	34.7 µM (inactive)	41 µM (inactive)	> 100 µM (inactive)	20.4 µM (inactive)	98.9 µM (inactive)	30.2 µM (inactive)	7.06 µM (inactive)	50.2 µM (inactive)	22.4 µM (inactive)	35.3 µM (inactive)	33 µM (inactive)	32.8 µM (inactive)	31.7 µM (inactive)	53.5 µM (inactive)	50.5 µM (inactive)
COn1cc(CO)c2ccccc21	40.8 µM (inactive)	> 61.2 µM (inactive)	> 100 µM (inactive)	52.7 µM (inactive)	> 100 µM (inactive)	> 100 µM (inactive)	> 68.7 µM (inactive)	> 100 µM (inactive)	34.7 µM (inactive)	27.5 µM (inactive)	28.8 µM (inactive)	> 100 µM (inactive)	53.1 µM (inactive)	> 90.8 µM (inactive)	> 84.7 µM (inactive)	25.2 µM (inactive)	> 83.2 µM (inactive)
COc1ccc2[nH]cc(CCNC(=O)[C@H](Cc3ccccc3)NC(=O)[C@@H](NCC(F)(F)F)C(C)C)c2c1	15.6 µM (inactive)	12.1 µM (inactive)	23.3 µM (inactive)	17.9 µM (inactive)	21.4 µM (inactive)	20.1 µM (inactive)	18.6 µM (inactive)	19 µM (inactive)	0.809 µM (active)	28.5 µM (inactive)	20.4 µM (inactive)	18.5 µM (inactive)	18.3 µM (inactive)	19.1 µM (inactive)	24.5 µM (inactive)	19.7 µM (inactive)	17.4 µM (inactive)
C=CCC1(C(=O)OC)CCC/C(=N\O)C1 (stereo unspecified)	> 10 µM (inactive)	> 10 µM (inactive)	> 10 µM (inactive)	> 10 µM (inactive)	> 10 µM (inactive)		> 10 µM (inactive)	> 10 µM (inactive)	> 10 µM (inactive)	> 10 µM (inactive)	> 10 µM (inactive)	> 10 µM (inactive)	> 10 µM (inactive)	> 10 µM (inactive)	> 10 µM (inactive)	> 10 µM (inactive)	
COc1ccc2oc(=O)c(-c3cc4c(c(C)n3)c(=O)oc3ccc(OC)cc34)cc2c1	> 100 µM (inactive)	> 100 µM (inactive)	> 100 µM (inactive)	> 100 µM (inactive)	> 100 µM (inactive)	> 100 µM (inactive)	27.4 µM (inactive)	93.5 µM (inactive)	> 100 µM (inactive)	> 100 µM (inactive)	> 100 µM (inactive)	> 100 µM (inactive)	> 100 µM (inactive)	> 100 µM (inactive)	> 100 µM (inactive)	> 100 µM (inactive)	> 100 µM (inactive)
C/C(=N\N=C(/S)N(C)C)c1cccnn1	0.424 µM (active)		0.526 µM (active)	0.726 µM (active)	0.869 µM (active)	0.394 µM (active)	> 66.4 µM (inactive)	0.513 µM (active)	0.275 µM (active)	0.612 µM (active)	0.188 µM (active)	0.745 µM (active)	0.889 µM (active)	0.521 µM (active)	1.1 µM (active)	0.438 µM (active)	0.551 µM (active)
COc1ccc(NC(C)=O)c(C(=O)CCNC(C)=O)c1	> 100 µM (inactive)	> 100 µM (inactive)	> 100 µM (inactive)	> 100 µM (inactive)	> 100 µM (inactive)	> 100 µM (inactive)	> 100 µM (inactive)	> 100 µM (inactive)	> 100 µM (inactive)	> 100 µM (inactive)	> 100 µM (inactive)	> 100 µM (inactive)	> 100 µM (inactive)	> 100 µM (inactive)	> 100 µM (inactive)	> 100 µM (inactive)	> 100 µM (inactive)
N/C(=N\Nc1nc2cc([N+](=O)[O-])ccc2o1)c1ccccn1	0.0422 µM (active)	0.242 µM (active)	0.0474 µM (active)	0.12 µM (active)	0.335 µM (active)	0.0468 µM (active)	4.31 µM (inactive)	0.124 µM (active)	< 0.0223 µM (active)	0.113 µM (active)	0.0621 µM (active)	0.114 µM (active)	0.182 µM (active)	0.0404 µM (active)	0.189 µM (active)	0.0929 µM (active)	0.0257 µM (active)
COc1ccc(C(C#N)NCCCCCCNC(C#N)c2ccc(OC)cc2)cc1 (stereo unspecified)	> 100 µM (inactive)	> 100 µM (inactive)	> 100 µM (inactive)	> 100 µM (inactive)	> 100 µM (inactive)		> 100 µM (inactive)	> 100 µM (inactive)	> 100 µM (inactive)	> 100 µM (inactive)	> 100 µM (inactive)	> 100 µM (inactive)	> 100 µM (inactive)	> 100 µM (inactive)	> 100 µM (inactive)	> 100 µM (inactive)	> 100 µM (inactive)
Clc1ccc(-c2nc(-c3ccc(Cl)cc3)[s+]s2)cc1	51.2 µM (inactive)		39.8 µM (inactive)	37.3 µM (inactive)	72.9 µM (inactive)	37.6 µM (inactive)	46.7 µM (inactive)	29.7 µM (inactive)	37 µM (inactive)	55.8 µM (inactive)	26.6 µM (inactive)	46.9 µM (inactive)	> 100 µM (inactive)	39.6 µM (inactive)	96.4 µM (inactive)	55.2 µM (inactive)	56.2 µM (inactive)
C#C[C@]1(O)CC[C@H]2[C@@H]3CCC4=C/C(=N/NC(=O)c5cccc6cc7ccccc7nc56)CC[C@@H]4[C@H]3CC[C@@]21CC	75.5 µM (inactive)	> 100 µM (inactive)	45 µM (inactive)	38.4 µM (inactive)	> 100 µM (inactive)	36.3 µM (inactive)	94 µM (inactive)	33.9 µM (inactive)	40.5 µM (inactive)	> 100 µM (inactive)	0.0942 µM (active)	> 100 µM (inactive)	> 100 µM (inactive)	58.9 µM (inactive)	35.4 µM (inactive)	> 100 µM (inactive)	
COc1cc2c(cc1OCCCCCCCCN1C(=O)c3cccc4cccc(c34)C1=O)N=C[C@@H]1CCCN1C2=O	11.1 µM (inactive)		14.9 µM (inactive)	3.71 µM (inactive)	12.6 µM (inactive)	20.7 µM (inactive)	22.1 µM (inactive)	3.45 µM (inactive)	2.82 µM (inactive)	18.7 µM (inactive)	3.48 µM (inactive)	8.63 µM (inactive)	50.2 µM (inactive)	3.27 µM (inactive)	22.2 µM (inactive)	26.2 µM (inactive)	2.37 µM (inactive)
CN(C)c1ccc(/C=C/c2ccc3ccccc3[n+]2C)cc1	2.97 µM (inactive)	1.99 µM (inactive)	1.39 µM (inactive)	1.64 µM (inactive)	1.2 µM (inactive)	3.64 µM (inactive)	20.4 µM (inactive)	5.24 µM (inactive)	1.66 µM (inactive)	2.12 µM (inactive)	1.47 µM (inactive)	3.28 µM (inactive)	1.67 µM (inactive)	> 100 µM (inactive)	2.96 µM (inactive)		1.62 µM (inactive)
C[N+](C)(CCNC(=O)c1cccc2cc3ccccc3nc12)Cc1ccc([N+](=O)[O-])s1	> 25 µM (inactive)	> 25 µM (inactive)	> 25 µM (inactive)	> 25 µM (inactive)	> 25 µM (inactive)		> 25 µM (inactive)		> 25 µM (inactive)	> 25 µM (inactive)	> 25 µM (inactive)	> 25 µM (inactive)	> 25 µM (inactive)	> 25 µM (inactive)	> 25 µM (inactive)	> 25 µM (inactive)	> 25 µM (inactive)
O=C1c2ccccc2C(=O)N1CCSCC(CO)SCCN1C(=O)c2ccccc2C1=O (stereo unspecified)		> 100 µM (inactive)	> 100 µM (inactive)	> 100 µM (inactive)	> 100 µM (inactive)	> 100 µM (inactive)	> 100 µM (inactive)		59.8 µM (inactive)	> 100 µM (inactive)	74 µM (inactive)	> 100 µM (inactive)	> 100 µM (inactive)	74.8 µM (inactive)	> 100 µM (inactive)	> 100 µM (inactive)	91 µM (inactive)
Cc1c(NC(=S)NN)c(=O)n(-c2ccccc2)n1C	> 100 µM (inactive)		> 100 µM (inactive)	> 100 µM (inactive)	> 100 µM (inactive)	> 100 µM (inactive)	93.8 µM (inactive)	> 100 µM (inactive)	> 100 µM (inactive)	> 100 µM (inactive)	> 100 µM (inactive)	0.0796 µM (active)	> 100 µM (inactive)	> 100 µM (inactive)	> 100 µM (inactive)	> 100 µM (inactive)	> 100 µM (inactive)
